Source: PubChem BioAssay AID256 (DTP/NCI, 2004)
“And” between values parts separate entries of the source, which are not always exact repeats. Equal values may be shown once. Toxic doses and inconclusive results are not listed. The calls were made as follows: active = survival T/C of 150% or more; inactive = T/C below 125% in these data.

Test system: CD2F1 mice, L1210 leukemia ip, survival T/C
Assay: NCI In Vivo Anticancer Drug Screen. Data for tumor model L1210 Leukemia (intraperitoneal) in CD2F1 (CDF1) mice
Conditions: higher = longer survival
Protocol: The antitumor activity of compounds was measured in mice bearing transplantable tumors. Survival or tumor size were measured and the results are expressed as the measurement made in the treated group (T) divided by the measurement made in the vehicle treated control group (C). The tumor model used in this assay is L1210 Leukemia (intraperitoneal) in CD2F1 (CDF1) mice

[1] = endpoint: mean survival time, dose: 100.0 mg/kg/injection, schedule: Q04DX003 (ip), vehicle: saline with Tween-80
[2] = endpoint: mean survival time, dose: 200.0 mg/kg/injection, schedule: Q04DX003 (ip), vehicle: saline with Tween-80
[3] = endpoint: mean survival time, dose: 400.0 mg/kg/injection, schedule: Q04DX003 (ip), vehicle: saline with Tween-80
[4] = endpoint: mean survival time, dose: 25.0 mg/kg/injection, schedule: Q01DX009 (ip), vehicle: saline with Tween-80
[5] = endpoint: mean survival time, dose: 50.0 mg/kg/injection, schedule: Q01DX009 (ip), vehicle: saline with Tween-80
[6] = endpoint: mean survival time, dose: 100.0 mg/kg/injection, schedule: Q01DX009 (ip), vehicle: saline with Tween-80
[7] = endpoint: mean survival time, dose: 200.0 mg/kg/injection, schedule: Q01DX009 (ip), vehicle: saline with Tween-80
[8] = endpoint: mean survival time, dose: 400.0 mg/kg/injection, schedule: Q01DX009 (ip), vehicle: saline with Tween-80
[9] = endpoint: mean survival time, dose: 100.0 mg/kg/injection, schedule: Q01DX001 (ip), vehicle: saline with Tween-80
[10] = endpoint: mean survival time, dose: 200.0 mg/kg/injection, schedule: Q01DX001 (ip), vehicle: saline with Tween-80
[11] = endpoint: mean survival time, dose: 400.0 mg/kg/injection, schedule: Q01DX001 (ip), vehicle: saline with Tween-80

Measured: T/C

NCC(OCC(=O)O)C(Cl)(Cl)Cl (stereo not given)
inactive: [1] 101 % of control | [2] 96 % of control | [3] 101 % of control

CCCCCCCCCCCCCCCC(=O)Nc1c(C)cc(C)cc1C
inactive: endpoint: mean survival time, dose: 100.0 mg/kg/injection, schedule: Q04DX002 (ip), vehicle: saline with Tween-80 103 % of control | endpoint: mean survival time, dose: 200.0 mg/kg/injection, schedule: Q04DX002 (ip), vehicle: saline with Tween-80 111 % of control | endpoint: mean survival time, dose: 400.0 mg/kg/injection, schedule: Q04DX002 (ip), vehicle: saline with Tween-80 91 % of control

NC(=Nc1ccccc1)SCCS(=O)(=O)O
inactive: [1] 102 % of control | [2] 100 % of control | [3] 104 % of control

c1ccc(COCC2OC(C3N(c4ccccc4)CCN3c3ccccc3)C(OCc3ccccc3)C2OCc2ccccc2)cc1 (stereo not given)
inactive: endpoint: mean survival time, dose: 12.5 mg/kg/injection, schedule: Q01DX005 (ip), vehicle: distilled water + Tween-80 102 % of control | endpoint: mean survival time, dose: 25.0 mg/kg/injection, schedule: Q01DX005 (ip), vehicle: distilled water + Tween-80 98 % of control | endpoint: mean survival time, dose: 50.0 mg/kg/injection, schedule: Q01DX005 (ip), vehicle: distilled water + Tween-80 102 % of control | endpoint: mean survival time, dose: 100.0 mg/kg/injection, schedule: Q01DX005 (ip), vehicle: distilled water + Tween-80 97 % of control | endpoint: mean survival time, dose: 200.0 mg/kg/injection, schedule: Q01DX005 (ip), vehicle: distilled water + Tween-80 92 % of control

C[N+]1(C)CCc2cc(O)c(O)cc2C1Cc1ccc(O)c(O)c1 (stereo not given)
inactive: endpoint: mean survival time, dose: 75.0 mg/kg/injection, schedule: Q01DX001 (ip), vehicle: saline 102 % of control

S=C1CCNCC1
inactive: endpoint: mean survival time, dose: 12.5 mg/kg/injection, schedule: Q01DX009 (ip), vehicle: saline 98 % of control | endpoint: mean survival time, dose: 12.5 mg/kg/injection, schedule: Q04DX003 (ip), vehicle: saline 100 % of control | endpoint: mean survival time, dose: 25.0 mg/kg/injection, schedule: Q01DX009 (ip), vehicle: saline 103 % of control | endpoint: mean survival time, dose: 25.0 mg/kg/injection, schedule: Q04DX003 (ip), vehicle: saline 96 % of control | endpoint: mean survival time, dose: 50.0 mg/kg/injection, schedule: Q01DX009 (ip), vehicle: saline 104 % of control | endpoint: mean survival time, dose: 50.0 mg/kg/injection, schedule: Q04DX003 (ip), vehicle: saline 87 % of control

CCN(CC)CC(O)CNc1ncnc(N)c1C(=C(C)C)c1ccc(Cl)cc1 (stereo not given)
inactive: [4] 101 % of control | [5] 97 % of control | [6] 97 % of control | [1] 101 % of control

C=CC=O
inactive: endpoint: mean survival time, dose: 1.87 mg/kg/injection, schedule: Q01DX009 (ip), vehicle: saline 92 % of control

COC(=O)c1c(CC#N)ncn1C1CC(OC(=O)c2ccc(C)cc2)C(COC(=O)c2ccc(C)cc2)O1 (stereo not given)
inactive: endpoint: median survival time, dose: 9.88 mg/kg/injection, schedule: Q01DX005 (ip), vehicle: water 101 % of control | endpoint: median survival time, dose: 19.75 mg/kg/injection, schedule: Q01DX005 (ip), vehicle: water 96 % of control | endpoint: median survival time, dose: 39.5 mg/kg/injection, schedule: Q01DX005 (ip), vehicle: water 96 % of control | endpoint: median survival time, dose: 79.0 mg/kg/injection, schedule: Q01DX005 (ip), vehicle: water 97 % of control | endpoint: median survival time, dose: 158.0 mg/kg/injection, schedule: Q01DX005 (ip), vehicle: water 100 % of control

ClCCn1c(CCl)nc2ccc(Cl)cc21
inactive: endpoint: mean survival time, dose: 2.5 mg/kg/injection, schedule: Q01DX009 (ip), vehicle: Klucel (hydroxypropylcellulose) (HPC) 109 % of control | endpoint: mean survival time, dose: 5.0 mg/kg/injection, schedule: Q01DX009 (ip), vehicle: Klucel (hydroxypropylcellulose) (HPC) 101 % of control | endpoint: mean survival time, dose: 10.0 mg/kg/injection, schedule: Q01DX009 (ip), vehicle: Klucel (hydroxypropylcellulose) (HPC) 95 % of control and 102 % of control

CC12CCC3C4CCC(=O)C(O)=C4CCC3C1CCC2OC(=O)CCC1CCCC1 (stereo not given)
inactive: endpoint: mean survival time, dose: 100.0 mg/kg/injection, schedule: Q04DX003 (sc), vehicle: steriod suspending solution 101 % of control | endpoint: mean survival time, dose: 200.0 mg/kg/injection, schedule: Q04DX003 (sc), vehicle: steriod suspending solution 104 % of control | endpoint: mean survival time, dose: 400.0 mg/kg/injection, schedule: Q04DX003 (sc), vehicle: steriod suspending solution 104 % of control

COc1ccc(NC(=O)Oc2cc(C)c(Cl)cc2C(C)C)c(Cl)c1
inactive: endpoint: mean survival time, dose: 50.0 mg/kg/injection, schedule: Q01DX009 (ip), vehicle: Klucel (hydroxypropylcellulose) (HPC) 100 % of control | endpoint: mean survival time, dose: 100.0 mg/kg/injection, schedule: Q01DX009 (ip), vehicle: Klucel (hydroxypropylcellulose) (HPC) 96 % of control | endpoint: mean survival time, dose: 100.0 mg/kg/injection, schedule: Q04DX003 (ip), vehicle: Klucel (hydroxypropylcellulose) (HPC) 98 % of control | endpoint: mean survival time, dose: 200.0 mg/kg/injection, schedule: Q01DX009 (ip), vehicle: Klucel (hydroxypropylcellulose) (HPC) 96 % of control | endpoint: mean survival time, dose: 200.0 mg/kg/injection, schedule: Q04DX003 (ip), vehicle: Klucel (hydroxypropylcellulose) (HPC) 98 % of control | endpoint: mean survival time, dose: 400.0 mg/kg/injection, schedule: Q04DX003 (ip), vehicle: Klucel (hydroxypropylcellulose) (HPC) 100 % of control

CCOC(=O)NC(C)(C)CN(C(=O)OCC)c1ccccc1
inactive: [6] 98 % of control | [7] 124 % of control | [8] 95 % of control

CC(=Nc1ccccc1)C1=C(O)C(Cc2ccccc2)NC1=O (stereo not given)
inactive: endpoint: mean survival time, dose: 12.5 mg/kg/injection, schedule: Q01DX009 (ip), vehicle: saline with Tween-80 98 % of control and 103 % of control | endpoint: mean survival time, dose: 12.5 mg/kg/injection, schedule: Q04DX002 (ip), vehicle: saline with Tween-80 100 % of control | [4] 102 % of control and 111 % of control | endpoint: mean survival time, dose: 25.0 mg/kg/injection, schedule: Q04DX002 (ip), vehicle: saline with Tween-80 103 % of control | [5] 118 % of control and 108 % of control | endpoint: mean survival time, dose: 50.0 mg/kg/injection, schedule: Q04DX002 (ip), vehicle: saline with Tween-80 103 % of control | [6] 110 % of control

O=[N+]([O-])O.[Ga]
inactive: endpoint: mean survival time, dose: 50.0 mg/kg/injection, schedule: Q01DX Z (ip), vehicle: saline 119 % of control

Cc1ccc(S(=O)(=O)N/N=C2/CC3CCC(C)(C2)C3)cc1 (stereo not given)
inactive: [3] 94 % of control

CCOC(=O)c1cnc(SC)nc1NC(C)c1ccccc1 (stereo not given)
inactive: [9] 94 % of control | [6] 97 % of control | [10] 88 % of control | [7] 89 % of control | [11] 89 % of control | [8] 94 % of control

CCOC(=O)C(=O)CC1=CC=CC2=NC(=O)CCN12
inactive: [9] 93 % of control | [10] 93 % of control | [11] 102 % of control

CC(=O)Nc1ccc(C(=O)CCl)cc1
inactive: [1] 90 % of control
